The source of these data is ChEMBL document CHEMBL1201862, “PubChem BioAssay data set” (2004).

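Method: 48-hour compound exposure of cells in 96-well plates, five concentrations, linear interpolation of endpoints. GI50 marks 50% less growth.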 Activity calls are given as the source filed them. No stated cut-off is given here; in the data, active = GI50 up to about 1.1 µM and inactive = higher.

Holding throughout (assay): NCI anticancer screen, dose series, 48 h
Assay [1] has as its system 786-0.
Assay [2] concerns A549.
The subject of assay [3] is ACHN.
The test system of assay [4] is DLD-1.
The test system of assay [5] is EKVX.
In assay [6] the test system is HL-60.
In assay [7] the test system is HT-29.
Assay [8] has as its system IGROV-1.
The test system of assay [9] is K562.
Assay [10] has as its system MOLT-4.
Assay [11] relates to NCI-H226.
For assay [12], the system named is NCI-H23.
The test system of assay [13] is NCI-H460.
Assay [14] has as its system SK-MEL-28.
Assay [15] relates to SK-MEL-2.
In assay [16] the test system is SN12C.
Assay [17] relates to SNB-75.
The test system of assay [18] is SW-620.

Consider `COc1ccc(OC)c(/C=C2\CCc3ccccc3C2=O)c1`, for which the GI50 in assay [1] was 3.03 µM (inactive); in assay [2], 2.25 µM (inactive); in assay [3] it was 7.26 µM (inactive); in [4] it was 5.36 µM (inactive); in [5], 3.2 µM (inactive); in assay [6], 1.68 µM (inactive). Further, the GI50 in assay [7] was 0.735 µM (active); in [8], 11.4 µM (inactive); in assay [9], 0.391 µM (active); in [10], 2.59 µM (inactive); in assay [11] it was 3.72 µM (inactive); in assay [12] it was 3.39 µM (inactive). The GI50 in assay [13] was 3.44 µM (inactive); in assay [14], 5.12 µM (inactive); in assay [15] it was 2.93 µM (inactive); in assay [16] it was 5.48 µM (inactive); in [17], 1.1 µM (active); in assay [18], 1.12 µM (active).

Consider `CCC1NCC(=O)c2c1[nH]c1ccccc21` (stereo not drawn), for which the GI50 in assay [1], in assay [2], in assay [3], in [4], in assay [5] and in assay [6] was > 100 µM (inactive) in each case. The GI50 in assay [7], in assay [8], in assay [9], in assay [10], in [11] and in [12] was > 100 µM (inactive) each time. The GI50 in assay [13], in assay [14], in assay [15], in assay [16], in [17] and in assay [18] was > 100 µM (inactive) throughout.

On to `Cc1c2ccncc2c(C)c2c1[nH]c1ccc(Oc3ccccc3)cc12`, for which the GI50 in assay [1] is 1.78 µM (inactive); in [2], 2.25 µM (inactive); in [3], 3.11 µM (inactive); in [4], 2.37 µM (inactive); in [5], 5.82 µM (inactive); in [6], 1.85 µM (inactive). For the same molecule, the GI50 was 1.79 µM (inactive) in assay [7]; 4.13 µM (inactive) in assay [8]; 1.92 µM (inactive) in assay [9]; 2.15 µM (inactive) in assay [10]; 14.3 µM (inactive) in assay [11]; 11.6 µM (inactive) in assay [12]. Further, the GI50 in assay [13] is 1.95 µM (inactive); in assay [14], 3.09 µM (inactive); in [15], 1.66 µM (inactive); in assay [16], 1.81 µM (inactive); in assay [17], 2.86 µM (inactive); in [18], 2.67 µM (inactive).

Regarding `CCCOC(=O)C1CCC(=O)N1C(=O)C(C)Cl` (stereo not drawn), the GI50 in assay [1], in assay [2], in [3], in assay [4], in assay [5] and in assay [6] was > 100 µM (inactive) each time. Also, the GI50 in assay [7], in assay [8], in assay [9], in assay [10], in assay [11] and in assay [12] was > 100 µM (inactive) throughout. Besides, the GI50 in [13], in assay [14], in assay [15], in assay [16], in assay [17] and in [18] was > 100 µM (inactive) each time.

`C[C@]12CC[C@H](O)CC1=CC[C@@H]1C2CC[C@]2(C)C(=O)N(N)C(=O)CC12` (stereo partly drawn): the GI50 in assay [1], in assay [2], in assay [3], in [4], in assay [5] and in assay [6] was > 100 µM (inactive) in each case. In addition, the GI50 in assay [7], in [8], in assay [9], in assay [10], in assay [11] and in assay [12] was > 100 µM (inactive) each time. The GI50 in assay [13] is > 100 µM (inactive); in [14], > 100 µM (inactive); in assay [15], > 100 µM (inactive); in [16], > 100 µM (inactive); in assay [17], 5.38 µM (inactive); in assay [18], > 100 µM (inactive).

Consider `Cc1ccc2nc(NC(=O)C(=O)CC(=O)c3cccc4ccccc34)sc2c1`, for which the GI50 in assay [1] is 20.2 µM (inactive); in assay [2] it was 33.6 µM (inactive); in [3] it was 41.9 µM (inactive); in assay [4] it was 49.7 µM (inactive); in [5], 92 µM (inactive); in assay [6], > 100 µM (inactive). Also, the GI50 in assay [7] was 36 µM (inactive); in assay [8], 31.7 µM (inactive); in assay [9], 31.5 µM (inactive); in [10] it was 42.1 µM (inactive); in assay [11] it was 19.8 µM (inactive); in assay [12] it was 50.8 µM (inactive). Besides, the GI50 was 52 µM (inactive) in [13]; 48.4 µM (inactive) in assay [14]; 35.5 µM (inactive) in assay [15]; 52 µM (inactive) in [16]; 16.9 µM (inactive) in assay [17]; 38.9 µM (inactive) in [18].

Regarding `CC(N)C(=O)c1ccc(O)cc1` (stereo not drawn), the GI50 in assay [1], in [2], in [3], in assay [4], in assay [5] and in assay [6] was > 100 µM (inactive) each time. In addition, the GI50 in [7], in assay [8], in [9], in assay [10], in [11] and in assay [12] was > 100 µM (inactive) in each case. The GI50 in [13], in assay [14], in assay [15], in [16], in assay [17] and in assay [18] was > 100 µM (inactive) throughout.

In the case of `COC(=O)C(=O)C(C#N)c1cccc(Cl)c1` (stereo not drawn), the GI50 in assay [1], in [2], in assay [3], in assay [4], in assay [5] and in [6] was > 100 µM (inactive) each time. In addition, the GI50 in [7], in assay [8], in assay [9], in assay [10], in assay [11] and in assay [12] was > 100 µM (inactive) throughout. Also, the GI50 in [13], in assay [14], in [15], in assay [16], in assay [17] and in assay [18] was > 100 µM (inactive) each time.

In the case of `COC(=O)CC(C(C(=O)OC)C(=O)OC)N1C(=O)OC(c2ccccc2)C1c1ccccc1` (stereo not drawn), the GI50 was > 100 µM (inactive) in assay [1]; > 100 µM (inactive) in assay [2]; > 100 µM (inactive) in assay [3]; 68.5 µM (inactive) in assay [4]; > 100 µM (inactive) in [5]; 37 µM (inactive) in assay [6]. The GI50 in [7], in [8], in assay [9], in assay [10], in [11] and in assay [12] was > 100 µM (inactive) throughout. Besides, the GI50 in assay [13] was 94.2 µM (inactive); in assay [14], > 100 µM (inactive); in assay [15], > 100 µM (inactive); in assay [16], > 100 µM (inactive); in [17], > 100 µM (inactive); in assay [18], 26.1 µM (inactive).

For the molecule `O=C(O)CNCc1c2ccccc2[n+]([O-])c2ccccc12`, the GI50 in [1] was 58.2 µM (inactive); in assay [2], > 100 µM (inactive); in assay [3], 57.4 µM (inactive); in [4], 39.4 µM (inactive); in assay [5], > 100 µM (inactive); in assay [6], 33.5 µM (inactive). Besides, the GI50 in [7] is 57.1 µM (inactive); in assay [8] it was 91.6 µM (inactive); in [9] it was 38.2 µM (inactive); in assay [10], 31 µM (inactive); in assay [11], > 100 µM (inactive); in [12] it was 69.3 µM (inactive). In addition, the GI50 in assay [13] is 72.4 µM (inactive); in [14], 75.7 µM (inactive); in [15], > 100 µM (inactive); in assay [16], 73.6 µM (inactive); in assay [17] it was 34.5 µM (inactive); in assay [18], 47 µM (inactive).

In the case of `C/C=C(\C)C(=O)N1c2ccccc2CC1c1c(C)[nH]c2ccccc12` (stereo not drawn), the GI50 was > 100 µM (inactive) in assay [1]; > 100 µM (inactive) in assay [2]; 55.8 µM (inactive) in [3]; 8.18 µM (inactive) in assay [4]; 71.1 µM (inactive) in assay [5]; 15.1 µM (inactive) in [6]. The GI50 in assay [7] is 38.4 µM (inactive); in assay [8], 39.6 µM (inactive); in assay [9], 39.6 µM (inactive); in [10], 19.9 µM (inactive); in assay [11], > 100 µM (inactive); in assay [12] it was 55.2 µM (inactive). For the same molecule, the GI50 in assay [13] is 37.9 µM (inactive); in assay [14], > 100 µM (inactive); in [15], 19.3 µM (inactive); in assay [16], > 100 µM (inactive); in assay [17] it was 35 µM (inactive); in assay [18] it was > 100 µM (inactive).
